From paper PMC5809559, “DYRK1A inhibition and cognitive rescue in a Down syndrome mouse model are induced by new fluoro-DANDY derivatives” (Scientific Reports, 2018) come the findings set out here.

Data set [1] is described as follows: Plasma and brain homogenate concentrations after Morris Water Maze (UHPLC-MS/MS). The data set is classed as in vivo, mice. Conditions: for average plasma concentration: 20 mg/kg i.p. daily, after MWM; for Kp: mouse, brain, intraperitoneal, 20 mg/kg, read-out: partition coefficient at steady state (Kp = brain concentration/plasma concentration). As for the experimental part: […]. To that end, all animals were sacrificed directly after the Morris Water Maze (MWM) and plasma and brain homogenates (one hemisphere) were extracted and analyzed. […]. […] […]. However, Kp values might be underestimated due to high plasma levels that could saturate efflux transport to the brain.
All plasma and brain homogenate extracts were analyzed by an ultra-high performance liquid chromatography (UHPLC) system coupled to a triple-quadrupole mass spectrometer (Dionex Ultimate 3000 RSLC system coupled to a TSQ Vantage EMR, Thermo Scientific, Les Ulis, France). UHPLC separation was performed using a C18 column (HSS T3, 2.1 mm × 150 mm, 1.7 μm, Waters, Guyancourt, France) equipped with a guard column (HSS T3, 2.1 mm × 5 mm, 1.7 μm, Waters, Guyancourt, France) and maintained at 40 °C. The mobile phases were water, 0.1% formic acid (A) and acetonitrile (B). […]. Injection volume was 4 µL and the autosampler was maintained at 6 °C. Ionization was performed with a heated electrospray ionization source in positive mode. The source parameters were set as follows: spray voltage 3350 V, vaporizer temperature 250 °C, sheath gas (N2) pressure 55 psi, auxiliary gas pressure (N2) 25 psi, capillary temperature 350 °C. Analysis was performed under the Selected Reaction Monitoring (SRM) mode using several transitions for each compound at optimized collision energies (see Table SI2 and Figure SI1). […]. Data acquisition was performed using ThermoScientific Xcalibur 2.1 software system. All samples were analyzed in triplicate.
Two compounds, V[34] (Fig. 9) and 5d, were tested as internal standard (IS). […] Calibration curve points and quality control (QC) points were realized in spiked plasma or brain homogenate samples (Figure SI2). […]. Samples with concentrations above the upper calibration point were diluted to be in the calibration range. Limit of quantification (LOQ) was determined as the lowest point of the calibration curve at 1.6 pg/μL. QC samples were prepared at 14.5 and 58 pg/μL to validate the between-run precision (n = 3, RSD of 13% and 5%, respectively), between-run trueness was 95 and 88% respectively. […]. Limit of quantification (LOQ) was determined as the lowest point of the calibration curve at 1.6 pg/mg. QC samples were prepared at 3.2 and 22.4 pg/mg to validate the between-run precision (n = 3, RSD of 8% and 2% respectively), between-run trueness was 129 and 93% respectively.
Immediately following last day of training in the MWM, mice were sacrificed by decapitation for maximal blood collection and the brain was immediately extracted from the skull, the cerebellum removed and the hemispheres separated and frozen at −80 °C. Plasma was obtained as described above. […]. Subsequently, the IS was added to 400 µL of homogenate which was then centrifuged (12 min, 14000 × g, 4 °C). The supernatant was evaporated and transferred into 40 µL acetonitrile/methanol/water (2/2/1). After centrifugation (12 min, 14000 × g, 4 °C), 4 µL of supernatant was used for UHPLC-MS/MS analysis.

For the next data set, the system named is Ts65Dn mice. Description: Morris water maze spatial learning in Ts65Dn and WT mice. The data set is classed as in vivo. From the text: Ts65Dn mice, the best-characterized and most widely used mouse model of DS, are trisomic for a segment of chromosome 16 extending between genes Mrp139 and Znf295 and containing approximately 92 orthologues of human chromosome 21 genes[42] including the Dyrk1a gene. […] Mice were trained for a total of 5 days to learn a fixed spatial goal location in the maze. […] In this paradigm, learning occurred when mice succeeded in decreasing their traveled distances after repeated training trials.
Male Ts65Dn (n = 8) mice and euploid wild-type (WT) littermates (n = 10) were purchased from the Jackson Laboratory (Bar Harbor, Maine, USA). As the recessive retinal degeneration 1 mutation Pde6brd1 in the original Ts65Dn mice causes blindness in homozygotes, we used an alternative strain (SN 5252) that is wild-type for Pde6b, thereby preventing retinal degeneration. Housing conditions comprised a standard cage (air-controlled system) with ad libitum food and water and a 12 h light/dark cycle. Mice received at least one week of habituation to the animal facility, followed by three days of handling (three minutes per mouse per day). […] Treatment was continued during the MWM protocol (mice being injected 30 min before each daily session).
Vehicle consisted of an identical composition without compound 5a.
A white pool with a diameter of 150 cm was filled with water made opaque with non-toxic white paint (Acusol OP301, Rohm and Haas Company, Landskrone, Sweden) and kept at a constant temperature (20–21.5 °C). A 9-cm diameter platform was placed in the south-east (SE) quadrant of the pool, 1 cm under the water surface. The light intensity in the experimental room was kept constant at 70 Lux. Mice were habituated to the room for at least 30 min before starting each daily session. The acquisition phase comprised 5 days of training, four trials per day with an inter-trial interval of at least 20 min to minimize motor fatigue. The order of release positions in the pool was pseudo-randomly at the four cardinal points and changed every day to maximize spatial allocentric training and formation of a “cognitive map”. Each trial ended as soon as the mouse found the platform or after a maximum of 90 s, after which the animal was gently manually guided to the platform. Mice were left on the platform for 20 s before they were gently dried with a towel and individually placed in a cage with paper towels for further drying. The animals returned to their homecage after 5 min.
ANY-maze Video Tracking System (Stoelting, USA) was used to record all trials. Calculated measures included 1) thigmotaxis (percent distance traveled in the 10 cm wide peripheral annulus of the pool) indicative of unsuccessful spatial strategy to locate the platform and 2) the Corrected Integrated Pathway Length (CIPL) an unbiased measure of distance-to-platform travelled taking into account the animal’s speed and the initial distance from the goal for each starting position.

Like-named read-outs stand apart in the source and are kept apart here.

As for `Oc1ccc(-c2cnc3[nH]cc(-c4ccc(F)cc4)c3c2)cc1O` [Compound 5a, 3-(4-fluorophenyl)-5-(3,4-dihydroxyphenyl)-1H-pyrrolo[2,3-b]pyridine], the average plasma concentration in data set [1] (Ts65Dn mice, n = 9) turned out to be 0.84 ± 0.54 µM; in data set [1] (WT mice, n = 10), 0.50 ± 0.28 µM. Besides, the mean brain concentration in data set [1] (Ts65Dn mice, n = 5, assuming vascular space 15 µL/g tissue) was 6.67 ± 4.64 µM; in data set [1] (WT mice, n = 4, assuming vascular space 15 µL/g tissue) it was 6.61 ± 5.35 µM. The Kp in data set [1] (Ts65Dn mice) came to 6.43 ± 3.38; in data set [1] (WT mice), 10.8 ± 9.55. Besides, the “change of thigmotaxis between vehicle and 5a conditions” value in the data set with Ts65Dn mice (Ts65Dn mice, 20 mg/kg i.p.) is on record as −12.9%; in the data set on Ts65Dn mice (WT mice, 20 mg/kg i.p.) it was −6.5%. In addition, the “spatial learning performance (CIPL) in Morris water maze” value in the data set with Ts65Dn mice (Ts65Dn mice, 20 mg/kg i.p. daily, vs vehicle, p < 0.05) is reported as “significant improvement of performance”. Further, in the data set on Ts65Dn mice (Ts65Dn mice, 20 mg/kg i.p., comparison with 5a-treated WT mice p > 0.99), the “swim speed in Morris water maze” value was “restored normal swim speed”. For the same molecule, in the data set on Ts65Dn mice (wild type mice, 20 mg/kg i.p. daily, vs vehicle), the “effect on Morris water maze performance” value is “no observable effect”.
